Tests used:
SRC3 = assay: Western blot of SRC3 protein levels in prostate, breast and gastric cancer cells, 24 hours, two doses; conditions: for SRC3 protein levels: two doses
PKC = conditions: read-out: IC50 PKC; cited from earlier work
PRK-1 = assay: Subcellular fractionation and Western blot of PRK-1 in nucleus and cytoplasm; format: cell-based; conditions: 6 hours
Source text: (§1) Ponceau S was used to stain proteins.
(§2) Nuclear and cytosolic fractions were obtained and analyzed by western blot. Antibodies used include SRC-3, PRK, tubulin, histone-H3, and actin.

SRC-3 [1] = assay: Western blot of SRC-3 protein expression in prostate cancer cell lines; format: cell-based; conditions: 1 μM, 6 hours
Source text: as §1

PRK1 = assay: Western blot of PRK1 protein expression in prostate cancer cell lines; conditions: LNCaP, PC3 and DU145 cells (any of the tested cell lines), 1 μM, 6 hours
SRC-3 [2] = assay: Subcellular fractionation and Western blot of SRC-3 in nucleus and cytoplasm; format: cell-based; conditions: 1000 nM, 6 hours
Source text: as §1, §2

prostate cancer cells = assay: MTT cell viability assay, prostate cancer cells; conditions: 10-3000 nM, 48 hours, PC3, DU145, LNCaP
gastric cancer cells = assay: MTT cell viability assay, gastric cancer cells; conditions: 10-3000 nM, 48 hours, AGS, MKN-45, Hs746T, NCI-N87
prostate cancer = conditions: Phase 2 human clinical trial, prostate cancer patients; cited from earlier work
DEK = assay: Western blot of DEK protein levels in prostate, breast and gastric cancer cells, 24 hours, two doses; conditions: gastric cancer cells (MKN-45 and NCI-N87)

C[C@]12O[C@H](C[C@]1(O)CO)n1c3ccccc3c3c4c(c5c6ccccc6n2c5c31)CNC4=O [lestaurtinib]
SRC3 protein levels (SRC3; MCF7 breast cancer cells): most profound dose-dependent decrease
SRC3 expression levels (SRC3; MKN-45 gastric cancer cells, higher dose): showed a decrease
SRC3 protein levels (SRC3; ZR75-1 breast cancer cells): no obvious change
IC50 (PKC): 226 nM
cytoplasmic PRK-1 levels (PRK-1; LNCaP, PC3, DU145, 1000 nM): unaltered
nuclear PRK-1 protein levels (PRK-1; all three cell lines (LNCaP, PC3, DU145), 1000 nM): increased
SRC-3 protein expression level (SRC-3 [1]; DU145 cells): not significantly altered
SRC-3 protein expression level (SRC-3 [1]; LNCaP cells): profound decrease
SRC-3 protein expression level (SRC-3 [1]; PC3 cells): not significantly altered
PRK1 protein expression level (PRK1): not significantly altered
reduction in cytoplasmic SRC-3, LNCaP compared to PC3 or DU145 (SRC-3 [2]; LNCaP cells): much more dramatic
nuclear SRC-3 protein levels (SRC-3 [2]; LNCaP, DU145 or PC3 cells): did not caused a reduction
SRC-3 protein in the cytoplasm (SRC-3 [2]; all three cell lines (LNCaP, PC3, DU145)): reduced
viability of prostate cancer cells (prostate cancer cells): effective in reducing viability
viability of gastric cancer cells (gastric cancer cells): effective in reducing viability
primary clinical endpoint of reduced PSA levels (prostate cancer): failed to achieve the primary clinical endpoint of reduced PSA levels
DEK levels (DEK): did not change

From patent US10449202B2, “Rationale-based design of a targeted therapy for cancer” (priority 2013, dated 2019)
